Reference: ChEMBL document CHEMBL1128526, “Conformational effects on retinoid receptor selectivity. 2. Effects of retinoid bridging group on retinoid X receptor activity and selectivity” (J Med Chem, 1995)
Several values for one entry are separate records, joined by “and”; a condition that tells them apart may be missing. Equal entries are not always repeated.

How the values were obtained:
[1] = target: T1, Retinoic acid receptor RXR-gamma (Homo sapiens, UniProt P48443); test: Effective concentrations against Retinoic acid receptor RXR-gamma
T1 sequence (P48443 whole entry): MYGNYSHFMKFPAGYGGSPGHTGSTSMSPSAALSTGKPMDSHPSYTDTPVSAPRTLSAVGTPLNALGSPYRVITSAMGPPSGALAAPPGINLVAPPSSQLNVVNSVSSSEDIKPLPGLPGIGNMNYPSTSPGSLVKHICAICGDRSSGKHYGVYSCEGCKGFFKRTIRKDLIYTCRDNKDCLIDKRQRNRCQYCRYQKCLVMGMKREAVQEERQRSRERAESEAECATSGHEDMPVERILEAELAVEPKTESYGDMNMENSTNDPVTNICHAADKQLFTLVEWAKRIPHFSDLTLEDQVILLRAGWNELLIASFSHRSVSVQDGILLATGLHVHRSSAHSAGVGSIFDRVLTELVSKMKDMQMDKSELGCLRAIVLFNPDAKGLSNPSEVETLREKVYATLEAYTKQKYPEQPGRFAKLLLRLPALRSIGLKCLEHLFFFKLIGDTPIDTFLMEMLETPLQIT

[2] = target: T2, Retinoic acid receptor RXR-beta (Homo sapiens, UniProt P28702); test: Effective concentrations against Retinoid X receptor RXR beta
T2 sequence (P28702 whole entry): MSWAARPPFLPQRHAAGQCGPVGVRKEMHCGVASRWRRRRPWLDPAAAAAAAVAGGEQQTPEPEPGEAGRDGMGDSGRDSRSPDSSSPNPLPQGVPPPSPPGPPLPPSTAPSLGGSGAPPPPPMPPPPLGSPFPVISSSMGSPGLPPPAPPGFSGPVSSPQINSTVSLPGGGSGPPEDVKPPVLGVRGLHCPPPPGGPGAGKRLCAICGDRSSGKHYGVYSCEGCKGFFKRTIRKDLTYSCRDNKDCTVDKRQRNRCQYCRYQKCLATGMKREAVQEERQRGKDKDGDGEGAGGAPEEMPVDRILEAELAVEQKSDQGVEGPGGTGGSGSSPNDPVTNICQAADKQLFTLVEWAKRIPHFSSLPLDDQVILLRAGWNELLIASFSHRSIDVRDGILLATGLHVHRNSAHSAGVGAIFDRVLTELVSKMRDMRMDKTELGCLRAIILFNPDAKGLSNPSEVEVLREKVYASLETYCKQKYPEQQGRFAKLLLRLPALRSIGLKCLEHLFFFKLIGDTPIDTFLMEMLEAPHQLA

[3] = target: T3, Retinoic acid receptor RXR-alpha (Homo sapiens, UniProt P19793); test: Effective concentration against Retinoic acid receptor RXR-alpha
T3 sequence (P19793 whole entry): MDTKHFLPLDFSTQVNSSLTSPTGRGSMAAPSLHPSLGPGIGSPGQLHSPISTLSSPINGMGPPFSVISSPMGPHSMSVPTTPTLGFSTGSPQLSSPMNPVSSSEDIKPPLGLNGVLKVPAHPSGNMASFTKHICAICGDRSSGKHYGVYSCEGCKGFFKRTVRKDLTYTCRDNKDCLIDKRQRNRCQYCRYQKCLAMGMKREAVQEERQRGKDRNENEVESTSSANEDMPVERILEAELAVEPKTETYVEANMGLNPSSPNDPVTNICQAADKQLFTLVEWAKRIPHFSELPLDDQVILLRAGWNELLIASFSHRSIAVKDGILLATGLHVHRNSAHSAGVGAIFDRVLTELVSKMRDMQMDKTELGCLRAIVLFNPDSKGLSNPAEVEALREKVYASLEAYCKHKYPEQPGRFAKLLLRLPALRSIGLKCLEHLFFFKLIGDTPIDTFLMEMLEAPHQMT

[4] = target: T2, Retinoic acid receptor RXR-beta; test: Effective concentrations against Retinoic acid receptor RXR-beta

| Compound | EC50 [1] [nM] | EC50 [2] [nM] | EC50 [3] | EC50 [4] [nM] |
| --- | --- | --- | --- | --- |
| CC1(C)CCC(C)(C)c2cc(C3(c4ccc(C(=O)O)cc4)SCCCS3)ccc21 | – | – | 630 nM and 540 nM | – |
| CC1(C)CCC(C)(C)c2cc(C3(c4ccc(C(=O)O)cc4)OCCS3)ccc21 (configuration not stated) | – | – | 74 nM | – |
| CC1(C)CCC(C)(C)c2cc(Cc3ccc(C(=O)O)cc3)ccc21 | 2000 | – | 2500 nM | 2700 |
| C/C=C(/c1ccc(C(=O)O)cc1)c1ccc2c(c1)C(C)(C)CCC2(C)C | 370 | – | 55 nM and 470 nM | 160 |
| CC(C)=C(/C=C/C(C)=C/C(=O)O)c1cc2c(cc1C)C(C)(C)CCC2(C)C | – | – | 200 nM | – |
| CC(C)=C(c1ccc(C(=O)O)cc1)c1ccc2c(c1)C(C)(C)CCC2(C)C | – | – | 86 nM | – |
| CC1(C)CCC(C)(C)c2cc(C3(c4ccc(C(=O)O)cc4)SCCS3)ccc21 | – | – | 170 nM | – |
| C/C=C(\c1ccc(C(=O)O)cc1)c1ccc2c(c1)C(C)(C)CCC2(C)C | – | – | 2500 nM | – |
| CC(C)=C(/C=C/C(C)=C/C(=O)O)c1ccc2c(c1)C(C)(C)CCC2(C)C | – | – | 380 nM | – |

Now from value to molecule:

| EC50 [1] [nM] | EC50 [2] [nM] | EC50 [3] | EC50 [4] [nM] | Compound |
| --- | --- | --- | --- | --- |
| 2300 | 47 | 21 nM | – | CC(/C=C/C1(c2cc3c(cc2C)C(C)(C)CCC3(C)C)OCCO1)=C\C(=O)O |
| 520 | – | 330 nM | 33 | C=C(c1ccc(C(=O)O)s1)c1cc2c(cc1C)C(C)(C)CCC2(C)C |
| – | – | 34 nM | – | CC1(C)CCC(C)(C)c2cc(C3(c4ccc(C(=O)O)cc4)OCCO3)ccc21 |
| – | – | 750 nM and 1200 nM | – | CC1(C)CCC(C)(C)c2cc(C3(c4ccc(C(=O)O)cc4)OCCCO3)ccc21 |
| – | – | 3100 nM | – | CC1(C)CCC(C)(C)c2cc(C(C)(C)c3ccc(C(=O)O)cc3)ccc21 |
| 300 | – | 2200 nM | 1000 | Cc1cc2c(cc1C(=O)c1ccc(C(=O)O)s1)C(C)(C)CCC2(C)C |
| – | – | 2900 nM | – | CC1(C)CCC(C)(C)c2cc(C(O)c3ccc(C(=O)O)cc3)ccc21 (configuration not stated) |
| – | – | 300 nM | – | CC(c1ccc(C(=O)O)cc1)c1ccc2c(c1)C(C)(C)CCC2(C)C (configuration not stated) |
| 530 | – | 2500 nM | 1900 | CC1(C)CCC(C)(C)c2cc(Oc3ccc(C(=O)O)cc3)ccc21 |
| – | – | 55 nM | – | CC1(C)CCC(C)(C)c2cc(C3(c4ccc(C(=O)O)cc4)CC3)ccc21 |
| – | – | 270 nM | – | C=C(c1ccc(C(=O)O)cc1)c1ccc2c(c1)C(C)(C)CCC2(C)C |
